# Data published in patent publication US20040053309A1, “Proteins, genes and their use for diagnosis and treatment of kidney response” (priority 2000, published 2004).
# Assays:
# rats = assay: Urine biochemistry parameters in Gentamicin-treated rats; type: in vivo, rat; settings: 60 mg/kg/day
# Method: (§1) Gentamicin, a known kidney toxin, was used to treat rats at a range of doses known to produce varying degrees of bistopathologically evident kidney response. […] The rat groups included 10 male rats per treated group, and 20 male rats in the untreated (control) group. Blood samples from rats treated at 40 mg/kg/day after 8 days were taken for proteome analysis, and kidney cortex tissue samples from rats treated at 0.1, 1.0, 10, and 40 mg/kg/day after 8 and 22 days for each group were taken for proteome analysis. Kidney cortex tissue samples were also prepared for histologic examination according to standard tissue preparation protocols.
# (§2) At 60 mg/kg/day there were changes in urine biochemistry parameters (raised NAG (N-acetyl-beta-D-glucosaminidase), GGT (gamma-glutamyl-transpeptidase) and urine volume, depressed specific gravity), consistent with kidney damage.
# [1] = test system: proximal convoluted tubule epithelium of the kidney; assay: Histologic examination of kidney cortex tissue of Gentamicin-treated rats; type: in vivo, rat
# Method: as §1, §2
substance,measurement,setting,value
Gentamicin,urine GGT (gamma-glutamyl-transpeptidase),rats,raised
same,urine NAG (N-acetyl-beta-D-glucosaminidase),rats,raised
same,urine specific gravity,rats,depressed
same,histologic examination of kidney,[1]; 60 mg/kg,single cell necrosis and loss of brush border of the proximal convoluted tubule epithelium of the kidney
same,histologic finding after withdrawal of treatment,[1]; seven days after the withdrawal of treatment,evidence of cortical tubular regeneration
